Data published in patent US12369579B2, “Antimicrobial agents and compositions and uses thereof” (KODA Therapeutics, LLC, priority 2019, dated 2025).
≈ marks a conversion by molar mass, not a printed value.

Test system: H. pylori
Test: MIC by broth microdilution assay against H. pylori
Format: cell-based
Conditions: Helicobacter pylori, 72 h
Method: (§1) The MIC and MBC of the compounds can be measured with the following procedure: In vitro antibacterial activity was tested using the broth microdilution assay. Experiments were carried out in triplicate using Müller-Hinton broth supplemented with 10% FBS in 96-well plates at a total assay volume of 100 μL. Antimicrobials were tested against H. pylori. Two-fold serial dilutions were prepared between the concentration range 0.01-64 μg/mL. An initial bacterial inoculum was adjusted to OD600=0.06 and incubated with test compounds at 37° C. for 3 days in humidified incubators under the 5% CO2 atmosphere. OD600 was measured and the lowest concentration of compound that inhibited bacterial growth was reported as the MIC. See Gwisai T, et al. Repurposing niclosamide as a versatile antimicrobial surface coating against device-associated, hospital-acquired bacterial infections. Biomed Mater. 2017; 12(4):045010. The pH was adjusted to acidic condition with 1 N HCL. The minimal bactericidal concentration (MBC) was determined by plating 5 μL of broth culture from the MIC assay onto Müller-Hinton agar (BD Biosciences) supplemented with 10% FBS. After 72 h, the lowest concentration at which colonies were not observed was reported as the MBC.

SMILES	MIC [µg/mL]
CCOP(=O)(N/N=C1\CCCc2oc([N+](=O)[O-])cc21)Nc1ccccc1 (stereo not shown) [Compound 15]	0.25 (≈ 0.661 µM)
O=[N+]([O-])c1ccc(/C=N/N=C/c2ccc([N+](=O)[O-])o2)o1 [Compound 14]	4 (≈ 14.4 µM)
CCOP(=O)(N/N=C/c1ccc([N+](=O)[O-])o1)Nc1ccc(Cl)cc1 (stereo not shown) [Compound 4]	1 (≈ 2.68 µM)
CCOP(=O)(N/N=C/c1ccc([N+](=O)[O-])o1)Nc1ccccc1 (stereo not shown) [Compound 1]	1 to 2 (≈ 2.96 to 5.91 µM)
CCOP(=O)(NCc1ccccc1)N/N=C/c1ccc([N+](=O)[O-])o1 (stereo not shown) [Compound 7]	2 (≈ 5.68 µM)
CCOP(=O)(N/N=C/c1ccc([N+](=O)[O-])o1)Nc1ccc(OC)cc1 (stereo not shown) [Compound 3]	2 (≈ 5.43 µM)
CCOP(=O)(N/N=C/c1ccc([N+](=O)[O-])o1)Nc1ccc(C)cc1 (stereo not shown) [Compound 2]	2 (≈ 5.68 µM)
CCOP(=O)(N/N=C/c1ccc([N+](=O)[O-])o1)Nc1ccc2c(c1)OCO2 (stereo not shown) [Compound 6]	2 (≈ 5.23 µM)
CCOP(=O)(N/N=C/c1ccc([N+](=O)[O-])o1)Nc1ccc(Cl)c(Cl)c1 (stereo not shown) [Compound 5]	1 (≈ 2.46 µM)

Same assay, conditions: Helicobacter pylori, 72 h; H. pylori; Müller-Hinton broth with 10% FBS, 37° C., 3 days; read-out: MIC

SMILES	MIC [µg/mL]
CC1(C)S[C@@H]2[C@H](NC(=O)[C@H](N)c3ccc(O)cc3)C(=O)N2[C@H]1C(=O)O [Amoxicillin, reference compound]	0.01 (≈ 0.0274 µM)
O=C(/C=C/c1ccccc1)N/N=C/c1ccc([N+](=O)[O-])o1 [Compound 11]	1 (≈ 3.51 µM)
Cc1ccc(NP(=O)(N/N=C/c2ccc([N+](=O)[O-])o2)N2CCOCC2)cc1 (stereo not shown) [Compound 8]	4 (≈ 10.2 µM)
O=C(/C=C/c1ccccc1)N/N=C1\CCCc2oc([N+](=O)[O-])cc21 [Compound 16]	0.25 (≈ 0.768 µM)
O=C1CCCc2oc([N+](=O)[O-])cc21 [Compound 12]	1 (≈ 5.52 µM)
Br.CNc1nc2c(s1)CCc1oc([N+](=O)[O-])cc1-2 [Compound 10]	4
NC(=O)N/N=C1/CCCc2oc([N+](=O)[O-])cc21 [Compound 13]	0.25 (≈ 1.05 µM)
Br.Nc1nc2c(s1)CCc1oc([N+](=O)[O-])cc1-2 [Compound 9]	4
O=C(Nc1ccc([N+](=O)[O-])cc1Cl)c1cc(Cl)ccc1O [Niclosamide, reference compound]	0.25 (≈ 0.764 µM)

Test system: H. pylori strain 51932
Test: MIC against H. pylori strain 51932
Format: cell-based, Helicobacter pylori
Conditions: not given
Method: as §1

SMILES	MIC [µg/mL]
CCOP(=O)(N/N=C1\CCCc2oc([N+](=O)[O-])cc21)Nc1ccccc1 (stereo not shown) [Compound 15]	0.25 (≈ 0.661 µM)
CCOP(=O)(N/N=C/c1ccc([N+](=O)[O-])o1)Nc1ccccc1 (stereo not shown) [Compound 1]	1.0 (≈ 2.96 µM)

Test system: H. pylori strain 49503
Test: MIC against H. pylori strain 49503
Format: cell-based, Helicobacter pylori
Conditions: not given
Method: as §1

SMILES	MIC
CCOP(=O)(N/N=C1\CCCc2oc([N+](=O)[O-])cc21)Nc1ccccc1 (stereo not shown) [Compound 15]	0.25 µg/mL (≈ 0.661 µM)
CCOP(=O)(N/N=C/c1ccc([N+](=O)[O-])o1)Nc1ccccc1 (stereo not shown) [Compound 1]	1.0-2.0 μ/mL

Test system: H. pylori
Test: MIC in acidic pH environments
Format: cell-based
Conditions: Helicobacter pylori, pH 5.5
Method: as §1
MIC data in acidic pH is shown in Table 6 for selected compounds identified by compound number.

SMILES	MIC [µg/mL]
CCOP(=O)(N/N=C1\CCCc2oc([N+](=O)[O-])cc21)Nc1ccccc1 (stereo not shown) [Compound 15]	0.06 (≈ 0.159 µM)
CCOP(=O)(N/N=C/c1ccc([N+](=O)[O-])o1)Nc1ccccc1 (stereo not shown) [Compound 1]	0.25 (≈ 0.739 µM)

Same assay, conditions: Helicobacter pylori, pH 5.5; read-out: MIC

SMILES	MIC [µg/mL]
O=C(/C=C/c1ccccc1)N/N=C1\CCCc2oc([N+](=O)[O-])cc21 [Compound 16]	0.06 (≈ 0.184 µM)
NC(=O)N/N=C1/CCCc2oc([N+](=O)[O-])cc21 [Compound 13]	0.06 (≈ 0.252 µM)

Same assay, conditions: Helicobacter pylori, pH 6

SMILES	MIC [µg/mL]
CCOP(=O)(N/N=C1\CCCc2oc([N+](=O)[O-])cc21)Nc1ccccc1 (stereo not shown) [Compound 15]	0.25 (≈ 0.661 µM)
CCOP(=O)(N/N=C/c1ccc([N+](=O)[O-])o1)Nc1ccccc1 (stereo not shown) [Compound 1]	1 (≈ 2.96 µM)

Same assay, conditions: Helicobacter pylori, pH 6.5

SMILES	MIC [µg/mL]
CCOP(=O)(N/N=C1\CCCc2oc([N+](=O)[O-])cc21)Nc1ccccc1 (stereo not shown) [Compound 15]	0.25 (≈ 0.661 µM)
CCOP(=O)(N/N=C/c1ccc([N+](=O)[O-])o1)Nc1ccccc1 (stereo not shown) [Compound 1]	1 (≈ 2.96 µM)

Same assay, conditions: Helicobacter pylori, pH 6.5; read-out: MIC

SMILES	MIC [µg/mL]
O=C(/C=C/c1ccccc1)N/N=C1\CCCc2oc([N+](=O)[O-])cc21 [Compound 16]	0.25 (≈ 0.768 µM)
NC(=O)N/N=C1/CCCc2oc([N+](=O)[O-])cc21 [Compound 13]	0.25 (≈ 1.05 µM)

Same assay, conditions: Helicobacter pylori, pH 7

SMILES	MIC [µg/mL]
CCOP(=O)(N/N=C1\CCCc2oc([N+](=O)[O-])cc21)Nc1ccccc1 (stereo not shown) [Compound 15]	0.25 (≈ 0.661 µM)
CCOP(=O)(N/N=C/c1ccc([N+](=O)[O-])o1)Nc1ccccc1 (stereo not shown) [Compound 1]	1 (≈ 2.96 µM)

Same assay, conditions: Helicobacter pylori; pH 6.0; read-out: MIC

SMILES	MIC [µg/mL]
O=C(/C=C/c1ccccc1)N/N=C1\CCCc2oc([N+](=O)[O-])cc21 [Compound 16]	0.25 (≈ 0.768 µM)
NC(=O)N/N=C1/CCCc2oc([N+](=O)[O-])cc21 [Compound 13]	0.25 (≈ 1.05 µM)

Same assay, conditions: Helicobacter pylori; pH 7.0; read-out: MIC

SMILES	MIC [µg/mL]
O=C(/C=C/c1ccccc1)N/N=C1\CCCc2oc([N+](=O)[O-])cc21 [Compound 16]	0.25 (≈ 0.768 µM)
NC(=O)N/N=C1/CCCc2oc([N+](=O)[O-])cc21 [Compound 13]	0.25 (≈ 1.05 µM)

Test system: H. pylori
Test: MBC by plating broth culture from the MIC assay onto Müller-Hinton agar
Format: cell-based
Conditions: Helicobacter pylori, 72 h
Method: as §1

SMILES	MBC [µg/mL]
CCOP(=O)(N/N=C1\CCCc2oc([N+](=O)[O-])cc21)Nc1ccccc1 (stereo not shown) [Compound 15]	0.25 (≈ 0.661 µM)
O=[N+]([O-])c1ccc(/C=N/N=C/c2ccc([N+](=O)[O-])o2)o1 [Compound 14]	4 (≈ 14.4 µM)
CCOP(=O)(N/N=C/c1ccc([N+](=O)[O-])o1)Nc1ccc(Cl)cc1 (stereo not shown) [Compound 4]	1 (≈ 2.68 µM)
CCOP(=O)(N/N=C/c1ccc([N+](=O)[O-])o1)Nc1ccccc1 (stereo not shown) [Compound 1]	2 (≈ 5.91 µM)
CCOP(=O)(NCc1ccccc1)N/N=C/c1ccc([N+](=O)[O-])o1 (stereo not shown) [Compound 7]	2 (≈ 5.68 µM)
CCOP(=O)(N/N=C/c1ccc([N+](=O)[O-])o1)Nc1ccc(OC)cc1 (stereo not shown) [Compound 3]	2 (≈ 5.43 µM)
CCOP(=O)(N/N=C/c1ccc([N+](=O)[O-])o1)Nc1ccc(C)cc1 (stereo not shown) [Compound 2]	2 (≈ 5.68 µM)
CCOP(=O)(N/N=C/c1ccc([N+](=O)[O-])o1)Nc1ccc2c(c1)OCO2 (stereo not shown) [Compound 6]	2 (≈ 5.23 µM)
CCOP(=O)(N/N=C/c1ccc([N+](=O)[O-])o1)Nc1ccc(Cl)c(Cl)c1 (stereo not shown) [Compound 5]	1 (≈ 2.46 µM)

Same assay, conditions: Helicobacter pylori; H. pylori; lowest concentration without colonies after 72 h; read-out: MBC

SMILES	MBC [µg/mL]
CC1(C)S[C@@H]2[C@H](NC(=O)[C@H](N)c3ccc(O)cc3)C(=O)N2[C@H]1C(=O)O [Amoxicillin, reference compound]	0.025 (≈ 0.0684 µM)
O=C(/C=C/c1ccccc1)N/N=C/c1ccc([N+](=O)[O-])o1 [Compound 11]	1 (≈ 3.51 µM)
Cc1ccc(NP(=O)(N/N=C/c2ccc([N+](=O)[O-])o2)N2CCOCC2)cc1 (stereo not shown) [Compound 8]	4 (≈ 10.2 µM)
O=C(/C=C/c1ccccc1)N/N=C1\CCCc2oc([N+](=O)[O-])cc21 [Compound 16]	0.25 (≈ 0.768 µM)
O=C1CCCc2oc([N+](=O)[O-])cc21 [Compound 12]	1 (≈ 5.52 µM)
Br.CNc1nc2c(s1)CCc1oc([N+](=O)[O-])cc1-2 [Compound 10]	4
NC(=O)N/N=C1/CCCc2oc([N+](=O)[O-])cc21 [Compound 13]	0.25 (≈ 1.05 µM)
Br.Nc1nc2c(s1)CCc1oc([N+](=O)[O-])cc1-2 [Compound 9]	4
O=C(Nc1ccc([N+](=O)[O-])cc1Cl)c1cc(Cl)ccc1O [Niclosamide, reference compound]	0.5 (≈ 1.53 µM)

Test system: H. pylori strain 43504
Test: MIC against H. pylori strain 43504
Format: cell-based, Helicobacter pylori
Conditions: not given
Method: as §1

SMILES	MIC [µg/mL]
CCOP(=O)(N/N=C1\CCCc2oc([N+](=O)[O-])cc21)Nc1ccccc1 (stereo not shown) [Compound 15]	1.0 (≈ 2.64 µM)
O=C(/C=C/c1ccccc1)N/N=C1\CCCc2oc([N+](=O)[O-])cc21 [Compound 16]	1.0 (≈ 3.07 µM)
CCOP(=O)(N/N=C/c1ccc([N+](=O)[O-])o1)Nc1ccccc1 (stereo not shown) [Compound 1]	2.0 (≈ 5.91 µM)
NC(=O)N/N=C1/CCCc2oc([N+](=O)[O-])cc21 [Compound 13]	0.5 (≈ 2.1 µM)

Test system: H. pylori
Test: Antibacterial synergy by checkerboard assay (FICI) with antibiotics and proton pump inhibitors
Format: cell-based, Helicobacter pylori
Conditions: tested with amoxicillin, clarithromycin, omeprazole and pantoprazole; synergistic effect = FICI ≤0.5
Method: Compounds 1, 13, 15, and 16 were tested with Amoxxicillin, Clarithromycin, Omeprazole, and Pantoprazole.
Antibacterial synergy was tested using the checkerboard assay. The compound of interest was combined with antibiotics and proton pump inhibitors (PPIs). In this series of experiments cultures of H. pylori were adjusted to OD600=0.06 and added to compound pairs that had been serially diluted in the same 96-well plates, vertically for one compound and horizontally for the other. Assays were carried out in triplicate as described in the antibacterial susceptibility assay sub-section. The combinatorial inhibitory concentration was indicated by the FICI. FICI=MICA combination/MICA alone+MICB combination/MICB alone.

SMILES	Combination effect with secondary agent (FIG. 1)
CCOP(=O)(N/N=C1\CCCc2oc([N+](=O)[O-])cc21)Nc1ccccc1 (stereo not shown) [Compound 15]	synergistic effect
O=C(/C=C/c1ccccc1)N/N=C1\CCCc2oc([N+](=O)[O-])cc21 [Compound 16]	synergistic effect
CCOP(=O)(N/N=C/c1ccc([N+](=O)[O-])o1)Nc1ccccc1 (stereo not shown) [Compound 1]	synergistic effect
NC(=O)N/N=C1/CCCc2oc([N+](=O)[O-])cc21 [Compound 13]	synergistic effect
